Results taken from US6573084B1, “Process for the deacylation of cyclic lipopeptides” (Fujisawa Pharmaceutical Co., Ltd., priority 1996, dated 2003).
Like-named read-outs stand apart in the source and are kept apart here. Starred links: 1 amine or outer side, 2 acyl side, 3 side chain; linkers in the order of their positions; H or OH if unused. Positions of bridges follow the written chain, without caps; N, C: chain ends. Non-standard residues stand in square brackets, D forms with d. Residues, ends and D or L forms follow the SMILES beside them. ξ: configuration not given here. *: point of attachment. X1 = O=C(C(N[*:1])C(O)C(O)c1ccc(O)c(OS(=O)(=O)O)c1)[*:2]; ξOrn(4,5-diOH) = O=C(C(CC(O)C(O)N[*:3])N[*:1])[*:2]; X4 = CCCCCCCCCCCCCC(CC(=O)[*:1])O[*:2]; ξPro(3ξ-OH,4ξ-Me) = CC1CNC(C(=O)O)C1O; X2 = NC(=O)CC(O)C(N[*:1])C(=O)[*:2]; Palmitoyl = CCCCCCCCCCCCCCCC(=O)*; X3 = O=C(C1C(O)CCN1[*:1])[*:2]; Hyp = O=C(O)[CH]1C[CH](O)CN1; Orn = NCCC[CH](N)C(=O)O

Columns and labels:
[1] = tested on: acylase produced by Streptomyces sp. No. 6907; assay: Deacylation of cyclic lipopeptide substrates by the acylase of Streptomyces sp. No. 6907 (HPLC, Lineweaver-Burk, substrate specificity); format: biochemical; conditions: for Vmax / Km: substrate of the acylase, fermentation broth of Streptomyces sp. No. 6907; for Km: read-out: Km value determined by the Lineweaver-Burk method
Experimental: To 700 μl of the fermentation broth of Streptomyces sp. No. 6907 obtained in Example 1-3 was added 100 μl of an aqueous solution of Substance FR901379 (100 mg/ml) (10 mg as Substance FR901379; 8.35 μmol) together with 100 μl of methanol and 100 μl of buffer (0.5 M potassium dihydrogen phosphate-disodium hydrogen phosphate buffer; pH 6.0), and the reaction was carried out at 30° C. for 30 minutes. The reaction was then stopped with 4% acetic acid and following addition of 2 ml of methanol, the mixture was filtered through a membrane filter (0.45 μm) to remove the macromolecular protein and other fraction and subjected to HPLC and the acylase activity of the skeletal substance FR179642 produced was monitored and assayed at 210 nm.
Using a variable wavelength UV detector (Shimadzu SPD-10A), a pump (Shimadzu LC-10AD) and an integrator (Shimadzu C-R6A) as the instrumentation, LiChrospher 100RP-18(e) (250 mm×4 mm i.d., particle diameter 5 μm(E.Merck)) as the stationary phase, and 3% acetonitrile/0.5% ammonium dihydrogen phosphate as the mobile phase, Substance FR179642 was eluted at a flow rate of 1 ml/min. The retention time of Substance FR179642 was about 6.3 minutes. The yield of Substance FR179642 as calculated from HPLC data was 560 μg (0.60 μmol).
(§1) To 100 μl of the fermentation broth of Streptomyces sp. No. 6907 obtained in Example 1-3 was added 100 μl of a dimethyl sulfoxide solution of Aculeacin A (100 mg/ml) (10 mg as Aculeacin A; 9.65 μmol) together with 500 μl of 1.2 M KCl-containing 500 mM potassium dihydrogen phosphate-disodium hydrogen phosphate buffer (pH 7.0) and 300 μl of water, and the reaction was carried out at 40° C. for 15 minutes. The reaction was then stopped with 1 ml of 4% acetic acid and following addition of 2 ml of methanol, the mixture was filtered through a membrane filter (0.45 μm) to remove the macromolecular protein and other fraction and subjected to HPLC and the acylase activity of the nuclear substance Aculeacin A produced was monitored at 210 nm and determined. Using a variable wavelength UV detector (Shimadzu SPD-10A), a pump (Shimadzu LC-10AD) and an integrator (Shimadzu C-R6A) as the instrumentation, LiChrospher 100RP-18(e) (250 mm×4 mm i.d., particle diameter 5 μm (E.Merck)) as the stationary phase, and 4% acetonitrile/1% ammonium dihydrogen phosphate as the mobile phase, nuclear substance Aculeacin A was eluted at a flow rate of 1 ml/min. The retention time of nuclear substance Aculeacin A was about 8.7 minutes. The yield of nuclear substance Aculeacin A as calculated from HPLC data was 370 μg (0.47 μmol).
as §1, with “Echinocandin B” for “Aculeacin A”, “Echinocandin B; 9.43” for “Aculeacin A; 9.65”, “monitored and assayed” for “monitored”, “nm.” for “nm and determined.”, “90” for “370”, “(0.11” for “(0.47”
To 2.0 ml of the fermentation broth of Streptomyces sp. […]

[2] = target: T1, Actinoplanes utahensis-derived acylase (Actinoplanes utahensis, UniProt P29958); assay: Deacylation of Substance FR901469 by Actinoplanes utahensis acylase (HPLC of Substance FR181131); format: biochemical, Actinoplanes utahensis IF013244; conditions: produces Substance FR181131
T1 construct: To 20 ml of a fermentation broth of Actinoplanes utahensis IF013244; endogenous in cells; host or cells: Actinoplanes utahensis IF013244 (so in the source), whole fermentation broth
T1 sequence (P29958 230-786 limits assumed): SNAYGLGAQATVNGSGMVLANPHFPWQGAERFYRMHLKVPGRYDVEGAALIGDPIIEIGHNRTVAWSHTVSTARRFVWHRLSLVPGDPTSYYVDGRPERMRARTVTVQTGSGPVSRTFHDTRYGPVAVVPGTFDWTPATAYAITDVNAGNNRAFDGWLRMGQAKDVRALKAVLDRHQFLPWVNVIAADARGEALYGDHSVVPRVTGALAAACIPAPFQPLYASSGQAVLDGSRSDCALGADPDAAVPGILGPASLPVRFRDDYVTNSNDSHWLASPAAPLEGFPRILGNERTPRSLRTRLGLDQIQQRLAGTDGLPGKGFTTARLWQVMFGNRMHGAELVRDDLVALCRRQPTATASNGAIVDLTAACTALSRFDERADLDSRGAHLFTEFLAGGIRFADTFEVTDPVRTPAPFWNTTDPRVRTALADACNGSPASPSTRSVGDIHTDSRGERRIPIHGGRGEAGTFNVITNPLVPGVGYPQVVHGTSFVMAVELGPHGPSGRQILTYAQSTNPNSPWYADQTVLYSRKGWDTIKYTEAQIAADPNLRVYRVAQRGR
T1 sequence (P29958 35-214 limits assumed): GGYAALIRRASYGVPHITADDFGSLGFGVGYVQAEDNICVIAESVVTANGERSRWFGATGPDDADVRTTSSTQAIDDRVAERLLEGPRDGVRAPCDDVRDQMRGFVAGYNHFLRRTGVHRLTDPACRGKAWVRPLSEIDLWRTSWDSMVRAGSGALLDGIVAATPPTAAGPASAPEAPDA
Experimental: To 20 ml of a fermentation broth of Actinoplanes utahensis IF013244 as prepared by the procedure described in J. Antibiotics, Vol. 41, p. 1085-1092 ('88) was added 1 ml of an aqueous solution of Substance FR901469 (200 mg/ml) (0.2 g as Substance FR901469; 130 μmol) together with 2.9 g of disodium hydrogen phosphate and 60 ml of water, and the reaction was carried out at 60° C. for 24 hours. After completion of the reaction, the reaction mixture was filtered through a membrane filter (0.45 μm) to remove the high molecular protein and other fraction and purified by HPLC under monitoring for Substance FR181131 at 210 nm and the acylase activity was determined. Using a variable wavelength UV detector (Shimadzu SPD-10A), a pump (Shimadzu LC-10AD) and an integrator (Shimadzu C-R6A) as the instrumentation, YMC AM303 (250 mm×4 mm i.d., particle diameter 5 μm) as the stationary phase, and 12.5% acetonitrile/0.5% ammonium dihydrogen phosphate as the mobile phase, Substance FR181131 was eluted at a flow rate of 1 ml/min. The retention time of Substance FR181131 was about 7.3 minutes. The yield of Substance FR181131 as calculated from HPLC data was 80 mg (68 μmol).

Compound	Substrate specificity (catalytic action of the acylase on the substrate) [1]	Vmax [1] [U/mg-protein]	Km [1] [µM]	Substrate specificity (catalytic action of the acylase on the substrate) ([1]; listed as FR901469)	Substrate specificity (catalytic action of the acylase on the substrate) [2]
CCCCCCCCCCCCCCCC(=O)NC1CC(O)C(O)NC(=O)C2C(O)C(C)CN2C(=O)C(C(O)CC(N)=O)NC(=O)C(C(O)C(O)c2ccc(O)c(OS(=O)(=O)O)c2)NC(=O)C2CC(O)CN2C(=O)C(C(C)O)NC1=O (stereo not drawn) [Substance FR901379] (Palmitoyl-[ξOrn(4,5-diOH)]T[Hyp][X1][X2][ξPro(3ξ-OH,4ξ-Me)]; lactam 1-C; configuration not given here)	acts as a catalyst	14.3	257	–	–
CCCCCCCCCCCCCC1CC(=O)NC(C(C)O)C(=O)NC(C)C(=O)NC(Cc2ccc(O)cc2)C(=O)NC(C(C)C)C(=O)N2CC(O)CC2C(=O)NC(C(C)O)C(=O)NC(C(C)O)C(=O)N2CCC(O)C2C(=O)NC(C(O)CC(N)=O)C(=O)NCC(=O)NC(C(C)O)C(=O)NC(CCCN)C(=O)O1 (stereo not drawn) [Substance FR901469] (TAYV[Hyp]TT[X3][X2]GT[Orn]; linker N-C via X4; configuration not given here)	exerts no catalytic action	–	–	does not act upon	exerts a catalytic action
Aculeacin A	acts as a catalyst	16.8	279	–	–
Echinocandin B	acts as a catalyst	7.85	146	–	–
